According to patent US20090274674A1, “Heterocyclic Oxime Compounds, Process for Their Preparation and Pharmaceutical Compositions Containing Them” (LES LABORATOIRES SERVIER, priority 2005, published 2009):

Columns and labels:
ob/ob mouse = test: Antidiabetic and hypolipaemic effect in the ob/ob mouse; format: in vivo; settings: male ob/ob mouse, 3 mg/kg oral once per day for four days, measured 24 hours after the final administration
Excerpt: Mutations in laboratory animals and also different sensitivities to dietary regimens have allowed the development of animal models having non-insulin-dependent diabetes and hyperlipidaemia associated with obesity and with resistance to insulin. Genetic mice models (ob/ob) (Diabetes, 1982, 31 (1), 1-6) and Zucker (fa/fa) rats have been developed by various laboratories in order to understand the physiopathology of those diseases and test the effectiveness of new antidiabetic compounds (Diabetes, 1983, 32, 830-838).
Antidiabetic and Hypolipaemic Effect in the ob/ob Mouse
The 10-week-old male ob/ob mouse (Harlan) is used for the in vivo tests. The animals are kept in a light-darkness cycle of 12 hours at 25° C. This mouse has a basal hyperglycaemia of 2 g/l. The animals are randomly selected with regard to their glycaemia to form groups of eight. The compounds tested by the oral route are dissolved in a mixture of hydroxyethyl cellulose (HEC 1%) to be administered at 3 mg/kg in a volume of 10 ml/kg once per day for four days. The control group receives the solvents under the same conditions as the treated groups. The activity of the products is evaluated by measuring glycaemia, triglyceridaemia and insulinaemia 24 hours after the final administration and by measuring body weight daily.

SMILES | melting point | reduction in glycaemia compared with the control (ob/ob mouse) [%] | reduction in insulinaemia compared with the control group (ob/ob mouse) [%] | reduction in triglyceridaemia compared with the control group (ob/ob mouse) [%]
CCOC(Cc1ccc(OCCn2ccc3cc(C(=NOC)c4ccccc4)cnc32)cc1)C(=O)OC (stereo not drawn) [Example 11, Methyl 2-ethoxy-3-[4-(2-{5-[(methoxyimino)(phenyl)methyl]-1H-pyrrolo[2,3-b]pyridin-1-yl}ethoxy)phenyl]propanoate] | 145 °C |  |  | 
CON=C(c1ccccc1)c1cnc2c(ccn2CCOc2ccc(CC(OCC(F)(F)F)C(=O)O)cc2)c1 (stereo not drawn) [Example 14, 3-[4-(2-{5-[(Methoxyimino)(phenyl)methyl]-1H-pyrrolo[2,3-b]pyridin-1-yl}ethoxy)phenyl]-2-(2,2,2-trifluoroethoxy)propanoic acid] | 182 °C (dec.) |  |  | 
CO/N=C(/c1ccccc1)c1cnc2c(ccn2CCOc2ccc(CC(OCC(F)(F)F)C(=O)O)cc2)c1Cl (stereo not drawn) [Example 16, 3-[4-(2-{4-Chloro-5-[(Z)-(methoxyimino)(phenyl)methyl]-1H-pyrrolo[2,3-b]pyridin-1-yl}ethoxy)phenyl]-2-(2,2,2-trifluoro-ethoxy)propanoic acid] | 186 °C |  |  | 
CON=C(c1ccccc1)c1ccc2ccn(CCOc3ccc(C[C@H](OCC(F)(F)F)C(=O)O)cc3)c2n1 [Example 32, (2S)-3-[4-(2-{6-[(Methoxyimino) (phenyl)methyl]-1H-pyrrolo[2,3-b]pyridin-1-yl}ethoxy)phenyl]-2-(2,2,2-trifluoroethoxy)propanoic acid] |  | 43 | 23 | 37
